This note sets out measurements from patent US10981905B2, “Heteroaryl-substituted sulfonamide compounds and their use as therapeutic agents” (Xenon Pharmaceuticals Inc., priority 2018, dated 2021).

In general, IC50 refers to the point on the concentration scale where inhibition reaches its midpoint.

Data set [1] has as its target T1, Nav1.6 (Homo sapiens (Human), UniProt Q9UQD0). Briefly: Electrophysiological Assay (EP, patch voltage clamp), Nav1.6. The class given is cell-based. The note with it: HEK-293 cells stably expressing the channel. The text has this: Patch voltage clamp electrophysiology allows for the direct measurement and quantification of block of voltage-gated sodium channels (Nav's), and allows the determination of the time- and voltage-dependence of block which has been interpreted as differential binding to the resting, open, and inactivated states of the sodium channel (Hille, B., Journal of General Physiology (1977), 69: 497-515).
Nav1.1, Nav1.5 and Nav1.6 cDNAs (NM_001165964 (SCN1A), NM_000335 (SCN5A) and NM_014191 (SCN8A), respectively) were stably expressed in HEK-293 cells.
Sodium currents were measured using the patch clamp technique in the whole-cell configuration using either a PatchXpress automated voltage clamp or manually using an Axopatch 200B (Axon Instruments) or Model 2400 (A-M systems) amplifier. The manual voltage clamp protocol was as follows: Borosilicate glass micropipettes were fire-polished to a tip diameter yielding a resistance of 2-4 Mohms in the working solutions. […] In some studies, the external sodium was reduced by equimolar replacement with choline. Osmolarity in the CsF internal and NaCl external solutions was adjusted to 300 mOsm/kg and 310 mOsm/kg with glucose, respectively. All recordings were performed at ambient temperature in a bath chamber with a volume of 150 μL. Control sodium currents were measured in 0.5% DMSO. Controls and representative compounds of the invention were applied to the recording chamber through a 4-pinch or 8-pinch valve bath perfusion system manufactured by ALA Scientific Instruments.
Currents were recorded at 40 kHz sampling frequency, filtered at […], and stored using a Digidata-1322A analogue/digital interface with the pClamp software (Axon Instruments). Series resistance compensation was applied (60-80%). […] All statistics in this study are given as mean±SD.
The membrane potential was maintained at a voltage where inactivation of the channel is complete. The voltage is then stepped back to a very negative (Vhold=−150 mV) voltage for 20 ms and then a test pulse is applied to quantify the compound block. The 20 ms brief repolarization was long enough for compound-free channels to completely recover from fast inactivation, but the compound-bound channels recovered more slowly such that negligible recovery could occur during this interval. The percent decrease in sodium current following wash-on of compound was taken as the percent block of sodium channels.

In another data set the target is Nav1.5 (Homo sapiens (Human), UniProt Q14524). Briefly: Sodium Influx Assay (Flux), Nav1.5.
Data set [2] concerns the target T1, Nav1.6. Briefly: Sodium Influx Assay (Flux), Nav1.6. Type of data set: cell-based. Particulars: Trex HEK293 cells, ANG2 dye, inactivated state.
In another data set the target is Nav1.1 (Homo sapiens (Human), UniProt P35498). The data set is described as follows: Sodium Influx Assay (Flux), Nav1.1. Type of data set: cell-based. The note with it: Trex HEK293 cells, ANG2 dye, inactivated state.
[3] abbreviates: read-out: Flux NaV1.5 IC50, sodium influx assay, Trex HEK293 cells, ANG2 dye, inactivated state.

Structures can show the parent of a compound that is named as a salt. Where two headings read alike, the source gives them in different places.

T1 sequence (Q9UQD0 whole entry): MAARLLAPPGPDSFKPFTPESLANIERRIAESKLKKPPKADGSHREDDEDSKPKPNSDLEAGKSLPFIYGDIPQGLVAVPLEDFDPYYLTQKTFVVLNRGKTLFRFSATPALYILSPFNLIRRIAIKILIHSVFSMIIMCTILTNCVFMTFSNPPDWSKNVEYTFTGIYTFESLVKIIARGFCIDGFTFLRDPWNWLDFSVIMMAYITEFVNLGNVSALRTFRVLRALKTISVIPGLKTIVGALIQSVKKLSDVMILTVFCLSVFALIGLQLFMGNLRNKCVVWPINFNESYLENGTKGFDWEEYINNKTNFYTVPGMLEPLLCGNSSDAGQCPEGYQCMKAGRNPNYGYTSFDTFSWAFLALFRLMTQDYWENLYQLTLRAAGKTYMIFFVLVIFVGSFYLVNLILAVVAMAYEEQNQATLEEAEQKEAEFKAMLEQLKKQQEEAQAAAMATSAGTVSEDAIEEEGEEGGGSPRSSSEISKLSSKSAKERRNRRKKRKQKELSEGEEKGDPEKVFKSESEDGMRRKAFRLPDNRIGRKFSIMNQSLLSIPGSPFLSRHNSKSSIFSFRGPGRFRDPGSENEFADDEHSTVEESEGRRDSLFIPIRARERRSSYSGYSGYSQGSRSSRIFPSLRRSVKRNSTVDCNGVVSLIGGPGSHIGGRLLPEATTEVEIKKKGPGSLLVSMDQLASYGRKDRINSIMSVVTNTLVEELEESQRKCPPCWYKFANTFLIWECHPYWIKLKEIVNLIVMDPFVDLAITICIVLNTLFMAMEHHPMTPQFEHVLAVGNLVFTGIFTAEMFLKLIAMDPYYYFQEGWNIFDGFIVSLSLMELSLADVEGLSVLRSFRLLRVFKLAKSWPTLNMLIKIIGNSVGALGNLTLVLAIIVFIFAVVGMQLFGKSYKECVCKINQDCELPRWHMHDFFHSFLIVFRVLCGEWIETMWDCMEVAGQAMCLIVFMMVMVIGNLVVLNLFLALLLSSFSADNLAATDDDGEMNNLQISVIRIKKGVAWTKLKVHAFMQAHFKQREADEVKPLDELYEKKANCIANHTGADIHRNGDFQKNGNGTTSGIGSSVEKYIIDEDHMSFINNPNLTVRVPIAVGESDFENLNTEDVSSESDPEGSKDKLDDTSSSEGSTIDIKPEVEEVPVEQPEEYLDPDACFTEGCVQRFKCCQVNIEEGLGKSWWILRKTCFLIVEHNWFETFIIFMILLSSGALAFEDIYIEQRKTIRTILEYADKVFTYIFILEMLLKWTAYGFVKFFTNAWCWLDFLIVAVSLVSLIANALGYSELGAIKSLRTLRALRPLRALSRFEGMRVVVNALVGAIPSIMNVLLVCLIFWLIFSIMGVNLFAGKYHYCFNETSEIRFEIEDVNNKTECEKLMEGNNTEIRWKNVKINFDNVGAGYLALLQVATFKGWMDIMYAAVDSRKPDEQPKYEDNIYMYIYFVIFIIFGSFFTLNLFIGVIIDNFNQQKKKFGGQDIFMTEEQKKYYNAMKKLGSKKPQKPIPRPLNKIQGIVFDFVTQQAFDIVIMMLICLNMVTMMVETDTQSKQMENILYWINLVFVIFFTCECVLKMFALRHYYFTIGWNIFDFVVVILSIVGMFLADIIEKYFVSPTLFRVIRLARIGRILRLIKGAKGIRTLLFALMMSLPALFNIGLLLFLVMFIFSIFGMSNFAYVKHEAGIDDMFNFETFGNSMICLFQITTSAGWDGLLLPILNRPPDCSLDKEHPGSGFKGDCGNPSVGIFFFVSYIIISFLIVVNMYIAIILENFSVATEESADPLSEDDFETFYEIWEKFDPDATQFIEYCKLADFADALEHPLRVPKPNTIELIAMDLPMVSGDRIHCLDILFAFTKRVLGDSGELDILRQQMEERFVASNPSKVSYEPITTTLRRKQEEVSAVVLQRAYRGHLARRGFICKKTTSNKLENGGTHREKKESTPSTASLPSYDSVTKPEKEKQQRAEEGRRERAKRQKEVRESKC
Chain of Nav1.5 (Q14524 other isoform, or with tags, fused parts or gaps): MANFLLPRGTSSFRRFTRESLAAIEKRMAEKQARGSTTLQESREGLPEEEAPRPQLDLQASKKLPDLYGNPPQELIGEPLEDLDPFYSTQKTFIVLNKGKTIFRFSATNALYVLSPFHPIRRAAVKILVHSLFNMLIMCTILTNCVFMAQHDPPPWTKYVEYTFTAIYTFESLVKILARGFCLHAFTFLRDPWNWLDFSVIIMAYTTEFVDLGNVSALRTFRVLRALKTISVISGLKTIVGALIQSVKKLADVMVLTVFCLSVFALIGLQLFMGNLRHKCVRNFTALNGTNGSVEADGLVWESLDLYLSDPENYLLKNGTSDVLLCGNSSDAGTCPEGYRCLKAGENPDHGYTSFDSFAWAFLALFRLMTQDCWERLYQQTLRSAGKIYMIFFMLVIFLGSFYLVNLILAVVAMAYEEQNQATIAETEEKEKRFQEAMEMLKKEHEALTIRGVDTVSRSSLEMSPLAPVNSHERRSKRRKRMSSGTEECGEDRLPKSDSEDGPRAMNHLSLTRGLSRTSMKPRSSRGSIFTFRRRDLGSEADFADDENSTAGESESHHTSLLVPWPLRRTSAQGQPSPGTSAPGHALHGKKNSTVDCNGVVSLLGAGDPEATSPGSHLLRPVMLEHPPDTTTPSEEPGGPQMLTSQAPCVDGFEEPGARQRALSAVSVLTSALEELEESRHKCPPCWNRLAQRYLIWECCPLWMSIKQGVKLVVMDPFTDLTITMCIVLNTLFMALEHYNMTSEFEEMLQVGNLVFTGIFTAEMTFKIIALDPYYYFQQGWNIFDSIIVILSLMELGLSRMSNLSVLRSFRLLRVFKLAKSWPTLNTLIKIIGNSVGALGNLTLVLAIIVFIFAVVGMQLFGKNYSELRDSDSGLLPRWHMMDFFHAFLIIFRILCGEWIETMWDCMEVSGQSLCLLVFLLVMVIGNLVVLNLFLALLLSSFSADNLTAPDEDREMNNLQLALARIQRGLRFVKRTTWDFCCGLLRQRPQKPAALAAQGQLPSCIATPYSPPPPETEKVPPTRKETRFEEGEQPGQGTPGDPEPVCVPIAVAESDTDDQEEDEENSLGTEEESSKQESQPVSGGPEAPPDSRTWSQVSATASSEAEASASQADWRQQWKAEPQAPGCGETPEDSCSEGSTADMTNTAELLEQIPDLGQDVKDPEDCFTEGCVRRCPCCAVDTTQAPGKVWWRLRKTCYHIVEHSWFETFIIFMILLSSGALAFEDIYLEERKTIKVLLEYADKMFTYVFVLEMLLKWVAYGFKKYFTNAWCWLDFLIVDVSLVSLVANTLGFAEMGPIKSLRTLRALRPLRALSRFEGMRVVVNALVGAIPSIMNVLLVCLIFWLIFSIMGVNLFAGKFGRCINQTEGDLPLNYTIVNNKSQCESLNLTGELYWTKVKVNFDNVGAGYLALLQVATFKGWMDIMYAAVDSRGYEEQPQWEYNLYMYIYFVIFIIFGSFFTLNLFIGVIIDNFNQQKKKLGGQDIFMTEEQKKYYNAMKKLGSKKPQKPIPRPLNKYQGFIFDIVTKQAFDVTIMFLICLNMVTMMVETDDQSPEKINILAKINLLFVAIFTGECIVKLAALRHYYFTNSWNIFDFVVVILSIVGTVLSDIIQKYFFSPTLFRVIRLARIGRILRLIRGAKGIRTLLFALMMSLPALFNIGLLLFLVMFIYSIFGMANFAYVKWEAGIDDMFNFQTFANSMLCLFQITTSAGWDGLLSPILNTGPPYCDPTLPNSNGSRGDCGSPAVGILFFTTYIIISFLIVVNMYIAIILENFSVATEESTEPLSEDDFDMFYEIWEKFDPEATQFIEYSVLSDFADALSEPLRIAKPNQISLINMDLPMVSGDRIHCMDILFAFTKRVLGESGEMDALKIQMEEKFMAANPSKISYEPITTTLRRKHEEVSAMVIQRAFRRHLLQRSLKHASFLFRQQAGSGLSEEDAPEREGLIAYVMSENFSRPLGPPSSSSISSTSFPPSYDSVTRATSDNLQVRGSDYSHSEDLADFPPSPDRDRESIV

For `Cc1nc(S(=O)(=O)Nc2cscn2)ccc1NCc1c(F)cccc1CN1CCC1` [Example 4, 5-((2-(azetidin-1-ylmethyl)-6-fluorobenzyl)amino)-6-methyl-N-(thiazol-4-yl)pyridine-2-sulfonamide], the IC50 against Nav1.6 [1] was 0.026 µM; at Nav1.5 (setting [3]), 28.2 µM; on Nav1.6 [2], 0.111 µM; against Nav1.1, 28.8 µM.

In the case of `Cc1nc(S(=O)(=O)Nc2cscn2)ccc1NCc1c(F)cccc1CN(C)C(C)(C)C` [Example 6, 5-((2-((tert-butyl(methyl)amino)methyl)-6-fluorobenzyl)amino)-6-methyl-N-(thiazol-4-yl)pyridine-2-sulfonamide formic acid salt], the IC50 was determined as 0.069 µM on Nav1.6 [1], 30 µM on Nav1.5 (setting [3]), 0.398 µM on Nav1.6 [2] and 30 µM against Nav1.1.

Turning to `Cc1nc(S(=O)(=O)Nc2ccsn2)ccc1NCc1c(F)cccc1CN(C)C(C)(C)C` [Example 19, 5-((2-((tert-butyl(methyl)amino)methyl)-6-fluorobenzyl)amino)-N-(isothiazol-3-yl)-6-methylpyridine-2-sulfonamide trifluoroacetic acid salt], the 50% inhibitory concentration (IC50) is 0.038 µM at Nav1.6 [1], 30 µM on Nav1.5 (setting [3]), 0.221 µM on Nav1.6 [2] and 30 µM against Nav1.1.

As for `Cc1nc(S(=O)(=O)Nc2ccsn2)ccc1NCc1c(F)cccc1CN1CCC1` [Example 20, 5-((2-(azetidin-1-ylmethyl)-6-fluorobenzyl)amino)-N-(isothiazol-3-yl)-6-methylpyridine-2-sulfonamide trifluoroacetic acid salt], the IC50 against Nav1.6 [1] is 0.023 µM; on Nav1.5 (setting [3]), 25 µM; on Nav1.6 [2], 0.067 µM; on Nav1.1, 30 µM.

Regarding `Cc1nc(S(=O)(=O)Nc2cscn2)ccc1NCc1c(F)ccc(F)c1CN(C)C(C)(C)C` [Example 21, 5-((2-((tert-butyl(methyl)amino)methyl)-3,6-difluorobenzyl)amino)-6-methyl-N-(thiazol-4-yl)pyridine-2-sulfonamide trifluoroacetic acid salt], the IC50 was found to be 0.043 µM against Nav1.6 [1], 30 µM at Nav1.5 (setting [3]), 0.102 µM at Nav1.6 [2] and 30 µM against Nav1.1.

In the case of `Cc1nc(S(=O)(=O)Nc2cscn2)ccc1NCc1c(F)cccc1CN(C)C(C)C` [Example 29, 5-((2-fluoro-6-((isopropyl(methyl)amino)methyl)benzyl)amino)-6-methyl-N-(thiazol-4-yl)pyridine-2-sulfonamide trifluoroacetic acid salt], the half-maximal inhibitory concentration (IC50) at Nav1.6 [1] was 0.039 µM; against Nav1.5 it was not below 30 µM; against Nav1.6 [2] it was 0.082 µM; on Nav1.1, not below 30 µM.

On to `Cc1nc(S(=O)(=O)Nc2cscn2)c(F)cc1NCc1ccccc1CN(C)C(C)(C)C` [Example 34, 5-((2-((tert-butyl(methyl)amino)methyl)benzyl)amino)-3-fluoro-6-methyl-N-(thiazol-4-yl)pyridine-2-sulfonamide formic acid salt], for which the half-maximal inhibitory concentration (IC50) against Nav1.5 is not below 30 µM; against Nav1.6 [2], 0.037 µM; at Nav1.1, not below 30 µM.

With `Cc1nc(S(=O)(=O)Nc2cscn2)c(F)cc1NCc1c(F)cccc1CN(C)C(C)C` [Example 35, 3-fluoro-5-((2-fluoro-6-((isopropyl(methyl)amino)methyl)benzyl)amino)-6-methyl-N-(thiazol-4-yl)pyridine-2-sulfonamide trifluoroacetic acid salt], the IC50 is not below 30 µM on Nav1.5, 0.024 µM against Nav1.6 [2] and 10.5 µM at Nav1.1.

`Cc1nc(S(=O)(=O)Nc2cscn2)c(F)cc1NCc1c(F)ccc(F)c1Br` [Example 36, 5-((2-bromo-3,6-difluorobenzyl)amino)-3-fluoro-6-methyl-N-(thiazol-4-yl)pyridine-2-sulfonamide trifluoroacetic acid salt]: the figures for the half-inhibitory concentration (IC50) at Nav1.5 (setting [3]), against Nav1.6 [2] and against Nav1.1 were 30 µM, 0.863 µM and 0.245 µM, respectively.

Consider `Cc1nc(S(=O)(=O)Nc2cscn2)c(F)cc1NCc1cccc(C(F)(F)F)c1CN1C2CCC1CC2` [Example 37, 5-((2-((7-azabicyclo[2.2.1]heptan-7-yl)methyl)-3-(trifluoromethyl)benzyl)amino)-3-fluoro-6-methyl-N-(thiazol-4-yl)pyridine-2-sulfonamide trifluoroacetic acid salt], for which the IC50 at Nav1.5 is not below 30 µM; on Nav1.6 [2], 5.92 µM; at Nav1.1, 8.7 µM.

For `Cc1nc(NCc2c(F)cccc2CN2CCCC2)ccc1S(=O)(=O)Nc1cccc(F)n1` [Example 40, 6-((2-fluoro-6-(pyrrolidin-1-ylmethyl)benzyl)amino)-N-(6-fluoropyridin-2-yl)-2-methylpyridine-3-sulfonamide trifluoroacetic acid salt], the IC50 on Nav1.5 (setting [3]) came out at 3.27 µM; against Nav1.6 [2], 2.23 µM; on Nav1.1, 5.54 µM.

As to `Cc1nc(S(=O)(=O)Nc2cccc(F)n2)ccc1NCc1c(F)cccc1CN1CCCC1` [Example 41, 5-((2-fluoro-6-(pyrrolidin-1-ylmethyl)benzyl)amino)-N-(6-fluoropyridin-2-yl)-6-methylpyridine-2-sulfonamide trifluoroacetic acid salt], the IC50 at Nav1.5 (setting [3]) turned out to be 30 µM; at Nav1.6 [2], 0.056 µM; on Nav1.1, 11.1 µM.

Regarding `O=S(=O)(Nc1cccc(F)n1)c1cnc(NCc2c(F)cccc2CN2CCCC2)c(Cl)c1` [Example 42, 5-chloro-6-((2-fluoro-6-(pyrrolidin-1-ylmethyl)benzyl)amino)-N-(6-fluoropyridin-2-yl)pyridine-3-sulfonamide trifluoroacetic acid salt], the IC50 at Nav1.5 (setting [3]) is 9.11 µM; against Nav1.6 [2] it was 4.47 µM; against Nav1.1, 6.29 µM.

Consider `Cc1cc(S(=O)(=O)Nc2cccc(F)n2)sc1NCc1c(F)cccc1CN1CCCC1` [Example 43, 5-((2-fluoro-6-(pyrrolidin-1-ylmethyl)benzyl)amino)-N-(6-fluoropyridin-2-yl)-4-methylthiophene-2-sulfonamide trifluoroacetic acid salt], for which the IC50 at Nav1.5 (setting [3]) worked out at 10.3 µM; against Nav1.6 [2] it was 2.11 µM; at Nav1.1, 8.21 µM.

For `O=S(=O)(Nc1cscn1)c1ccc(NCc2c(F)ccc(F)c2CN2CCCC2)n2ccnc12` [Example 44, 5-((3,6-difluoro-2-(pyrrolidin-1-ylmethyl)benzyl)amino)-N-(thiazol-4-yl)imidazo[1,2-a]pyridine-8-sulfonamide trifluoroacetic acid salt], the IC50 was 8.85 µM on Nav1.5 (setting [3]), 0.171 µM at Nav1.6 [2] and 20.2 µM against Nav1.1.

As for `Cc1c(NCc2c(F)cccc2CN(C)C(C)C)cnc(S(=O)(=O)Nc2cccc(F)n2)c1F` [Example 45, 3-fluoro-5-((2-fluoro-6-((isopropyl(methyl)amino)methyl)benzyl)amino)-N-(6-fluoropyridin-2-yl)-4-methylpyridine-2-sulfonamide], the IC50 was determined as 30 µM at Nav1.5 (setting [3]), 1.93 µM against Nav1.6 [2] and 30 µM at Nav1.1.

For `Cc1nc(S(=O)(=O)Nc2ccon2)c(F)cc1NCc1ccccc1CN(C)C(C)(C)C` [Example 46, 5-((2-((tert-butyl(methyl)amino)methyl)benzyl)amino)-3-fluoro-N-(isoxazol-3-yl)-6-methylpyridine-2-sulfonamide trifluoroacetic acid salt], the values for the IC50 at Nav1.5, on Nav1.6 [2] and at Nav1.1 were not below 30 µM, 1.78 µM and not below 30 µM, respectively.

`Cc1nc(S(=O)(=O)Nc2cscn2)c(F)cc1NCc1c(F)cccc1CN(C)C(C)(C)C` [Example 48, 5-((2-((tert-butyl(methyl)amino)-methyl)-6-fluorobenzyl)amino)-3-fluoro-6-methyl-N-(thiazol-4-yl)pyridine-2-sulfonamide]: the half-maximal inhibitory concentration (IC50) at Nav1.6 [1] came out at 0.017 µM; on Nav1.5 (setting [3]) it was 30 µM; at Nav1.6 [2] it was 0.084 µM; on Nav1.1, 30 µM.

With `CN(Cc1cccc(F)c1CNc1cc(F)c(S(=O)(=O)Nc2cscn2)nc1C1CC1)C(C)(C)C` [Example 49, 5-((2-((tert-butyl(methyl)amino)methyl)-6-fluorobenzyl)amino)-6-cyclopropyl-3-fluoro-N-(thiazol-4-yl)pyridine-2-sulfonamide], the values for the IC50 at Nav1.5 (setting [3]), against Nav1.6 [2] and against Nav1.1 were 7.5 µM, 0.078 µM and 3.75 µM, respectively.
